Experiments:
[1] = tested on: subcutaneous human pre-adipocytes; test: Accumulation of lipids in subcutaneous human pre-adipocytes (AdipoRed); assay type: cell-based; conditions: peptide 0.1 mg/mL in PDM-2, 10 days, PGM-2 = 0%, PDM-2 = 100%
Method: The levels of accumulation of lipids in subcutaneous human pre-adipocytes were quantified using the AdipoRed™ (Lonza) reagent. 100,000 cells were cultivated per well in PGM™-2 medium at a final volume of 100 μL. After 24 hours, the differentiation from pre-adipocytes to mature adipocytes was induced changing the medium to PDM-2 in the presence of the different peptides at 0.1 mg/mL. After 10 days of treatment with the peptides in differentiation medium, the quantity of intracellular lipids was evaluated using the AdipoRed™ reagent following the manufacturer's instructions measuring the fluorescence of the samples (length of the excitation wave 485 nm and emission 535 nm) after adding the AdipoRed™ reagent. The fluorescence values were corrected with regards to the basal fluorescence and were normalized with regards to the maximum differentiation controls (PDM-2 medium, maximum accumulation of lipids) and minimum differentiation (PGM™-2 medium, minimum accumulation of lipids).

cellulitis (thigh) = test: Reduction of cellulitis in volunteers, length of the dermo-hypodermic junction line (ultrasound); assay type: in vivo, human; conditions: after 21 days of treatment
From the text: 20 Caucasian volunteers between the age of 25 and 45, with healthy skin and affected by cellulitis levels I-III according to the pinch test applied the composition from Example 15 to one thigh and a placebo composition (the same composition from Example 15 without the peptide) to the other thigh, twice a day for 21 days. The length of the dermo-hypodermic junction line was instrumentally assessed using the Ultrasound Scanner Dermascan C® (Cortex Technology, Denmark) at the beginning of the study and at the end of the study (21 days). The measurement of the length of the dermo-hypodermic junction line is related to the formation of cellulitis and skin irregularities [Quatresooz P et al., “Cellulite histopathology and related mechanobiology”, (2006), Int. J. Cosm. Sci., 28, 207-210]. A reduction in the length of the dermo-hypodermic junction line leads to softer and more regular skin, and as such cellulitis will be less visible. The statistical analysis of the evolution of the parameters measured during the study was carried out using the Student's t-test. The statistical significance threshold was established at 5%.

PGC-1α gene = test: Transcription of the PGC-1α gene, quantitative real time PCR in differentiating pre-adipocytes; assay type: cell-based; conditions: subcutaneous human adipocytes; peptide 0.1 mg/mL in PDM-2, 10 days; PGM-2 = 0%, PDM-2 = 100%
Method: The expression levels of the gene PGC-1α are measured by PCR in quantitative real time. A cell line of subcutaneous human pre-adipocytes is incubated in PGM™-2 medium at a density of 100,000 cells/well in a volume of 100 μL for 24 hours. Differentiation is induced by changing the medium to PDM-2 in the presence of the peptides Ac-L-Ser-L-Ile-L-Tyr-L-Val-L-Ala-L-Thr-NH2 (Ac-SEQ ID NO. 1-NH2) and Ac-L-Ser-L-Val-L-Val-L-Val-L-Arg-L-Thr-NH2 (Ac-SEQ ID NO. 2-NH2) at 0.1 mg/mL for 10 days, after which the cells were lysed and the RNA is extracted. The PCR is carried out in quantitative real time using the Taqman® Gene Expression Cells-to-CT (Applied Biosystems) kit according to the manufacturer's instructions and with the appropriate probes (TaqMan® Hs01016719_m1 probe for the PGC-1α gene and Taqman® Hs99999901_s1 probe for the eukaryotic ribosomal subunit 18S, the endogenous control of expression) and the values are normalized with regards to the maximum differentiation controls (PDM-2 medium, maximum quantity of PGC-1α mRNA) and minimal differentiation (PGM™-2 medium, minimum quantity of PGC-1α mRNA).

human PGC-1α promoter = test: Modulation of the human PGC-1α promoter activity (luciferase reporter, Hep G2); assay type: cell-based; conditions: Hep G2 transfected with luciferase under human PGC-1α promoter; peptide 0.5 mg/mL, 24 hours; normalized to carrier = 100%
Method: The modulation capacity of the promoter of human PGC-1α is evaluated by the peptides in the invention in the hepatocellular Hep G2 carcinoma cell line transfected with the luciferase gene under the regulation of the human PGC-1α promoter. The cells are seeded at a density of 20,000 cells/25 cm^2 plate) and incubated for 24 hours in RPMI-1640 complete medium, after which the peptides of the invention are added at 0.5 mg/mL and are incubated for another 24 hours. The RPMI-1640 complete medium (carrier) is used as a negative control. The measurement of the promoter's activity is carried out using the Steady-Glo® Luciferase Assay System (PROMEGA) kit following the manufacturer's instructions. The luminescence values are read on a luminometer […] and the activity of the promoter is determined, which is normalized with regards to the values of the negative control.

Row | Substance | Activity of the PGC-1α promoter (%) (human PGC-1α promoter) | other results
1 | Ac-L-Ser-L-Ile-L-Tyr-L-Val-L-Ala-L-Thr-NH2 (Ac-SIYVAT-NH2) [Ac-SEQ ID NO. 1-NH2] | 57 | % Accumulation of intracellular lipids [1]: 33%; effect on the length of the dermo-hypodermic junction line and cellulitis (cellulitis (thigh)): induces a reduction in the length of the dermo-hypodermic junction line; % relative quantity of PGC-1α mRNA (PGC-1α gene): 63%
2 | Ac-L-His-L-Val-L-Val-L-Val-L-Ala-L-Thr-NH2 (Ac-HVVVAT-NH2) [Ac-SEQ ID NO. 8-NH2] | 89 | –
3 | Ac-L-His-L-Val-L-Tyr-L-Val-L-Ala-L-Thr-NH2 (Ac-HVYVAT-NH2) [Ac-SEQ ID NO. 4-NH2] | 77 | –
4 | Ac-L-His-L-Ile-L-Tyr-L-Val-L-Ala-L-Val-NH2 (Ac-HIYVAV-NH2) [Ac-SEQ ID NO. 25-NH2] | 76 | –
5 | Ac-L-Ser-L-Val-L-Val-L-Val-L-Ala-L-Thr-NH2 (Ac-SVVVAT-NH2) [Ac-SEQ ID NO. 9-NH2] | 62 | –
6 | Ac-L-Ser-L-Ile-L-Tyr-L-Val-L-Ala-L-Val-NH2 (Ac-SIYVAV-NH2) [Ac-SEQ ID NO. 26-NH2] | 40 | –
7 | Ac-L-Ser-L-Ile-L-Tyr-L-Val-Gly-L-Thr-NH2 (Ac-SIYVGT-NH2) [Ac-SEQ ID NO. 18-NH2] | 64 | –
8 | Ac-L-Ser-L-Val-L-Val-L-Val-Gly-L-Thr-NH2 (Ac-SVVVGT-NH2) [Ac-SEQ ID NO. 24-NH2] | 90 | –
9 | Ac-L-Ser-L-Val-L-Tyr-L-Val-Gly-L-Val-NH2 (Ac-SVYVGV-NH2) [Ac-SEQ ID NO. 44-NH2] | 67 | –
10 | Ac-L-Ser-L-Ile-L-Tyr-L-Val-L-Arg-L-Val-NH2 (Ac-SIYVRV-NH2) [Ac-SEQ ID NO. 34-NH2] | 134 | –
11 | Ac-L-Ser-L-Ile-L-Val-L-Val-Gly-L-Val-NH2 (Ac-SIVVGV-NH2) [Ac-SEQ ID NO. 46-NH2] | 78 | % Accumulation of intracellular lipids [1]: 38%
12 | Ac-L-His-L-Val-L-Tyr-L-Val-Gly-L-Val-NH2 (Ac-HVYVGV-NH2) [Ac-SEQ ID NO. 43-NH2] | 75 | –
13 | Ac-L-Ser-L-Val-L-Val-L-Val-Gly-L-Val-NH2 (Ac-SVVVGV-NH2) [Ac-SEQ ID NO. 48-NH2] | 75 | % Accumulation of intracellular lipids [1]: 37%
14 | Ac-L-Ser-L-Ile-L-Val-L-Val-L-Arg-L-Thr-NH2 (Ac-SIVVRT-NH2) [Ac-SEQ ID NO. 15-NH2] | 150 | –
15 | Ac-L-Ser-L-Val-L-Tyr-L-Val-L-Arg-L-Val-NH2 (Ac-SVYVRV-NH2) [Ac-SEQ ID NO. 36-NH2] | 136 | –
16 | Ac-L-Ser-L-Ile-L-Val-L-Val-Gly-L-Thr-NH2 (Ac-SIVVGT-NH2) [Ac-SEQ ID NO. 22-NH2] | 63 | % Accumulation of intracellular lipids [1]: 43%
17 | Ac-L-Ser-L-Val-L-Val-L-Val-L-Ala-L-Val-NH2 (Ac-SVVVAV-NH2) [Ac-SEQ ID NO. 32-NH2] | 82 | –
18 | Ac-L-His-L-Val-L-Tyr-L-Val-L-Ala-L-Val-NH2 (Ac-HVYVAV-NH2) [Ac-SEQ ID NO. 27-NH2] | 42 | –

Row | Substance | Activity of the PGC-1α promoter (%) (human PGC-1α promoter) | other results
19 | Ac-L-Ser-L-Val-L-Tyr-L-Val-Gly-L-Thr-NH2 (Ac-SVYVGT-NH2) [Ac-SEQ ID NO. 20-NH2] | 76 | –
20 | Ac-L-Ser-L-Val-L-Val-L-Val-L-Arg-L-Val-NH2 (Ac-SVVVRV-NH2) [Ac-SEQ ID NO. 40-NH2] | 141 | –
21 | Ac-L-Ser-L-Val-L-Tyr-L-Val-L-Arg-L-Thr-NH2 (Ac-SVYVRT-NH2) [Ac-SEQ ID NO. 13-NH2] | 131 | % Accumulation of intracellular lipids [1]: 79%
22 | Ac-L-His-L-Ile-L-Val-L-Val-L-Ala-L-Thr-NH2 (Ac-HIVVAT-NH2) [Ac-SEQ ID NO. 6-NH2] | 72 | –
23 | Ac-L-His-L-Val-L-Val-L-Val-L-Arg-L-Val-NH2 (Ac-HVVVRV-NH2) [Ac-SEQ ID NO. 39-NH2] | 186 | –
24 | Ac-L-His-L-Ile-L-Tyr-L-Val-L-Arg-L-Thr-NH2 (Ac-HIYVRT-NH2) [Ac-SEQ ID NO. 10-NH2] | 115 | –
25 | Ac-L-Ser-L-Ile-L-Tyr-L-Val-L-Arg-L-Thr-NH2 (Ac-SIYVRT-NH2) [Ac-SEQ ID NO. 11-NH2] | 151 | % Accumulation of intracellular lipids [1]: 76%
26 | Ac-L-Ser-L-Val-L-Tyr-L-Val-L-Ala-L-Thr-NH2 (Ac-SVYVAT-NH2) [Ac-SEQ ID NO. 5-NH2] | 69 | % Accumulation of intracellular lipids [1]: 48%
27 | Ac-L-His-L-Ile-L-Val-L-Val-Gly-L-Thr-NH2 (Ac-HIVVGT-NH2) [Ac-SEQ ID NO. 21-NH2] | 110 | % Accumulation of intracellular lipids [1]: 114%
28 | Ac-L-His-L-Ile-L-Val-L-Val-L-Ala-L-Val-NH2 (Ac-HIVVAV-NH2) [Ac-SEQ ID NO. 29-NH2] | 81 | –
29 | Ac-L-Ser-L-Ile-L-Val-L-Val-L-Arg-L-Val-NH2 (Ac-SIVVRV-NH2) [Ac-SEQ ID NO. 38-NH2] | 180 | –
30 | Ac-L-His-L-Ile-L-Tyr-L-Val-L-Arg-L-Val-NH2 (Ac-HIYVRV-NH2) [Ac-SEQ ID NO. 33-NH2] | 117 | –
31 | Ac-L-His-L-Val-L-Tyr-L-Val-L-Arg-L-Val-NH2 (Ac-HVYVRV-NH2) [Ac-SEQ ID NO. 35-NH2] | 132 | –
32 | Ac-L-Ser-L-Ile-L-Val-L-Val-L-Ala-L-Val-NH2 (Ac-SIVVAV-NH2) [Ac-SEQ ID NO. 30-NH2] | 120 | –
33 | Ac-L-His-L-Val-L-Tyr-L-Val-L-Arg-L-Thr-NH2 (Ac-HVYVRT-NH2) [Ac-SEQ ID NO. 12-NH2] | 114 | % Accumulation of intracellular lipids [1]: 84%
34 | Ac-L-His-L-Ile-L-Val-L-Val-L-Arg-L-Val-NH2 (Ac-HIVVRV-NH2) [Ac-SEQ ID NO. 37-NH2] | 118 | –
35 | Ac-L-Ser-L-Ile-L-Val-L-Val-L-Ala-L-Thr-NH2 (Ac-SIVVAT-NH2) [Ac-SEQ ID NO. 7-NH2] | 145 | –
36 | Ac-L-Ser-L-Ile-L-Tyr-L-Val-Gly-L-Val-NH2 (Ac-SIYVGV-NH2) [Ac-SEQ ID NO. 42-NH2] | 64 | –

— patent US9266921B2, “PGC-1α-modulating peptides” (Lipotec, S.A., priority 2011, dated 2016)
